{"source": "patent US11986450B2", "about": "“Methods and compositions for treating infection and inflammation with selenocyanate” (National Jewish Health, priority 2017, dated 2024)", "key": {"[1]": {"test_system": "Pseudomonas aeruginosa (PA) lung infection", "experimental": "FIGS. 8A-8C. […] Wild type (WT) and beta-subunit of the epithelial Na(+) channel (βENaC) Tg Mice were nebulized with 0.5% ^−SCN twice-daily starting 24 hrs post infection. Mice were sacrificed 72 hrs post infection and lung burden of PA was assessed (FIG. 8A), BAL neutrophil counts (FIG. 8B), and BALF KC cytokine (IL-8 analog) levels determined (FIG. 8C).\nThe inventors have shown critical in vivo proof of principle with inhaled ^−SCN in PA-infected mice (Chandler, J. D., et al. (2015); Chandler, J. D., et al. (2013) Nebulized thiocyanate improves lung infection outcomes in mice. Br J Pharmacol 169, 1166-1177). […] Mice that overexpress a sodium channel, βENaC, have been developed that spontaneously develop lung inflammation and mucous obstructions similar to that reported in subjects with CF (Mall, M., et al. (2004) Increased airway epithelial Na+ absorption produces cystic fibrosis-like lung disease in mice. Nat Med 10, 487-493). This model is useful to differentiate the antimicrobial effect of an agent from its potential anti-inflammatory effects."}, "[2]": {"test_system": "macrophage (J774A.1.) cells", "conditions": "100 μM HOCl, 400 μM SCN, 15 minutes, viability after 6 hrs", "protocol": "Cells were exposed to 100 μM HOCl and/or 400 μM ^−SCN in PBS for 15 minutes, washed and then placed in fresh media for 6 hrs before viability assessment with flow cytometry (FIG. 7A)."}, "[3]": {"test_system": "Human peripheral blood neutrophils activated with PMA", "conditions": "20 ng/ml PMA, 200 μM thiocyanate", "protocol": "Cytotoxicity was assessed by measuring lactate dehydrogenase (LDH) release."}, "[4]": {"test_system": "clinical isolate of M. abscessus", "assay": "NTM killing, exposure to GOX, LPO, SeCN components", "format": "cell-based", "conditions": "plated on LB agar immediately after mixing", "description": "FIGS. 24A and 24B show —SeCN-mediated killing of NTM requires LPO, but not GOX, while LPO/—SeCn has no effect upon B. Cepacia. […] All conditions with GOX also contained dextrose, the required substrate of GOX for H2O2 production.\nSusceptibility of NTM species to both HOSCN- and HOSeCN-mediated killing. […] Given the shorter amount of time necessary for —SeCN-mediated killing of NTM compared to other bacteria species (FIGS. 24A and 24B), the possibility that the mechanism responsible for —SeCN-mediated killing of NTM was unique compared to —SCN-mediated killing of NTM and —SeCN-mediated killing of other species is determined. […] Since killing required LPO, the inventors believe that endogenous H2O2 production by NTM provided the H2O2 required for the generation of HOSeCN via LPO and —SeCN."}, "[5]": {"conditions": "aerosolized isotonic 0.5% (w/v) solution in PBS for 30 minutes", "protocol": "Mice (C57B6) were exposed to an aerosolized isotonic 0.5% (w/v) ^−SCN solution in PBS for 30 minutes (0 hr) and ^−SCN levels in the ELF and serum were determined by HPLC-EC at various time points."}, "[6]": {"conditions": "nebulized 0.5%, twice daily, started 1 day after infection, 72 hours"}}}
{"smiles": "N#CS", "note": "[SCN, thiocyanate]", "values": [{"measurement": "BAL neutrophil cell counts", "setting": "[1]; mouse, in vivo", "value": "decreased"}, {"measurement": "Lung CFU PA burden", "setting": "[1]; mouse, in vivo", "value": "lower lung CFU PA burden"}, {"measurement": "BAL levels of KC (IL-8 analog)", "setting": "[1]; [6]", "value": "decreased"}, {"measurement": "Body weight loss", "setting": "[1]; [6]", "value": "less body weight loss"}, {"measurement": "Lung pyocyanin levels", "setting": "[1]; [6]", "value": "decreased lung pyocyanin levels"}, {"measurement": "Protection from HOCl-mediated necrosis", "setting": "[2]", "value": "protects macrophage (J774A.1.) cells from HOCl-mediated necrosis"}, {"measurement": "Cytoprotection in activated neutrophils", "setting": "[3]", "value": "cytoprotective"}, {"measurement": "Killing of NTM with LPO, without GOX", "setting": "[4]", "value": "did not kill NTM"}, {"measurement": "ELF SCN levels", "setting": "[5]", "value": "high ELF ^−SCN levels"}, {"measurement": "Tolerability of inhaled SCN", "setting": "[5]", "value": "well tolerated"}]}
